Patent US20180298332A1, “Microfluidic Model of the Blood Brain Barrier” (EMULATE, Inc., priority 2015, published 2018)

How the values were obtained:
[1] = system: cell monolayers with tight junctions; conditions: cited from earlier work
neurons seeded in chip = format: cell-based, human
iBMEC barrier function = assay: TEER measurement on prototype TEER chips under flow; format: cell-based, human; conditions: chip under flow, then exposure to TNFa; FIG. 14A
Procedure: Cells were plated on tall channel PDMS chips equipped with incorporated gold electrodes on each channel (see FIG. 13A). Post seeding of BMECs, transendothelial electrical resistance was measured by connecting the electrodes to an EVOM2 voltohmmeter (see FIG. 13B). […] The “damaged” chip was a failure due to the TEER-Chips being a prototype.
Higher TEER values generally indicate a tighter barrier, which is typically desirable for a blood-brain barrier.

[2] = system: BMECs seeded on a microfluidic device; assay: Paracellular permeability assay with Dextran-FITC on chip; format: cell-based, human; conditions: TNF-alpha exposure; Dextran-FITC 4 KDa added to bottom channel, measured in top channel; FIG. 14B
Excerpt: Brain microvascular endothelial cells (BMECs) constitute the blood-brain barrier (BBB) which forms a dynamic interface between the blood and the central nervous system (CNS) in vivo. This highly specialized interface restricts paracellular diffusion of fluids and solutes including chemicals, toxins and drugs from entering the brain. In this example, fluorescein sodium is used in a paracellular permeability assay of the BMECs seeded on a microfluidic device.
Albumin or Dextran conjugated to a fluorescent probe (e.g., FITC or TRITC) are frequently used to monitor changes in leakage, and thus barrier function. In this case, Dextran-FITC, a green fluorescent molecule of 4 KDa, or sodium fluorescein (a 0.3 KDa molecule), was added to the bottom (“blood side”) channel. Paracellular permeability was calculated by measuring the permeability of the fluorescent molecule on the Top (“brain side”) channel. […] FIG. 14B involves TNF-alpha exposure, but the readout is membrane permeability as measured by Dextran-FITC.

Lucifer Yellow
Permeability (Papp) [1]: 5 to 12 nm/s

NC1=N[C@H](O)[C@H]2[C@H]3O[C@]4(O)O[C@@H]([C@@H](O)[C@@]2(N1)[C@@H]4O)[C@]3(O)CO [tetrodotoxin]
neuronal calcium flux activity (neurons seeded in chip): ablates this activity

TNFa
iBMEC barrier function (TEER) after exposure of the chips (iBMEC barrier function): weakening of barrier function
membrane permeability as measured by Dextran-FITC [2]: increase in permeability
